Literature values in patent US20220184030A1, “N-Phenylacetyl-L-prolylglycine ethyl ester compositions and methods for using the same” (priority 2020, published 2022).
Read-outs that look alike come from different tables or passages of the source. Residues, ends and D or L forms follow the SMILES beside them. *: point of attachment. PhAc = O=C(Cc1ccccc1)*

Key:
[1] = users
[2] = not given; remark: listed apart in the source

Compound	side effects (humans who consume effective doses)	tolerance or addiction to the compound [1]	tolerance to the nootropic effects [1]	side effects (healthy human subjects, compared with piracetam)	effective dose relative to the effective dose of piracetam ([2]; versus piracetam)	effective dose compared with racetams (in words) ([2]; versus some racetams, such as piracetam)
C=C(C)[C@@H]1CCC(C)=C[C@H]1c1c(O)cc(CCCCC)cc1O [CBD, cannabidiol]	generally does not cause significant side effects	neither noopept nor CBD has been shown to cause the user to become tolerant or addicted	generally do not develop a tolerance	–	–	–
CCOC(=O)CNC(=O)[C@@H]1CCCN1C(=O)Cc1ccccc1 [noopept, N-Phenylacetyl-L-prolylglycine ethyl ester] (PhAc-Pro-Gly-OEt)	–	neither noopept nor CBD has been shown to cause the user to become tolerant or addicted	generally do not develop a tolerance	fewer side effects	over 50 times smaller in mass	smaller effective dose than some racetams
